Consider one compound from patent publication EP1715036A1, “Crystal structure of an Aurora-B/INCENP complex” (Boehringer Ingelheim International GmbH, priority 2005, dated 2006).

Holding throughout (type): biochemical
The target in assay [1] is T1, wt-Aurora-B^60-361/INCENP^790-847 (Xenopus laevis, UniProt Q6DE08).
T1 construct: GST (N, cleaved yes); made in house; host or cells: E. coli BL21(DE3) with pUBS520 helper plasmid
The experiment in a line: radioactive kinase filterbinding assay, IC50 determination. To be noted: wt enzyme complex at 5 nM; 100 µM ATP, 10 µM substrate peptide; spread printed ± 2 nM. On the procedure:
(§1) The ATP-KM value for the G96V mutant (83 µM) is similar to the wt enzyme (61 µM). The kinase assays are run in the presence of 100 µM ATP using 10 µM of a substrate peptide (see Materials and Methods).
(§2) Hesperadin is a potent inhibitor of human Aurora-B (Hauf, 2003). To determine whether Hesperadin inhibits also xAurora-B /INCENP complexes, a kinase filterbinding assay is employed for IC50-determinations. Both, the G96V and the wt enzyme complex are used at 5 nM concentration in the assays.
(§3) Purified xAurora-B/INCENP is snap frozen and stored for further use at -80°C in desalting buffer (50 mM Tris/Cl pH 8.0, 150mM NaCl, 0.1mM EDTA, 0.03% Brij-35, 10% glycerol, 1mM DTT). xAurora-B/INCENP is incubated in the presence or absence of a test compound dilutions in DMSO prior to addition of substrate peptide and P33-γ-ATP. Samples without a test compound or without substrate peptide are used as high or low-controls, respectively. IC50 values are determined using Graph Pad Prism software.
(§4) For the filter-binding kinase assay (reaction volume 50 ul /well), 96-well PP-Microplates (Greiner, 655 201) are used. To 10µl compound in 25% DMSO are added 30µl PROTEIN-MIX (166 µM ATP,1x kinase buffer [50mM Tris/Cl pH7.5,25mM MgC12, 25mM NaCl], 10-20 ng xAurora-B/INCENP) followed by an 15 min incubation at room temperature (agitating, 350rpm). […]

The target of assay [2] is T2, G96V-Aurora-B^60-361/INCENP^790-847 (Xenopus laevis, UniProt Q6DE08, G96V).
T2 construct: GST (N, cleaved yes); made in house; host or cells: E. coli BL21(DE3) with pUBS520 helper plasmid
Described as above. To be noted: G96V enzyme complex at 5 nM; 100 µM ATP, 10 µM substrate peptide; spread printed ±13 nM. On the procedure: as §1, §2, §3, §4

In assay [3] the target is monomeric human Aurora-B (Homo sapiens, UniProt Q96GD4). The experiment in a line: kinase assay on monomeric human Aurora-B. To be noted: assay conditions which allow similar signal/noise ratios.
monomeric human Aurora-B, sequence (Q96GD4 whole entry): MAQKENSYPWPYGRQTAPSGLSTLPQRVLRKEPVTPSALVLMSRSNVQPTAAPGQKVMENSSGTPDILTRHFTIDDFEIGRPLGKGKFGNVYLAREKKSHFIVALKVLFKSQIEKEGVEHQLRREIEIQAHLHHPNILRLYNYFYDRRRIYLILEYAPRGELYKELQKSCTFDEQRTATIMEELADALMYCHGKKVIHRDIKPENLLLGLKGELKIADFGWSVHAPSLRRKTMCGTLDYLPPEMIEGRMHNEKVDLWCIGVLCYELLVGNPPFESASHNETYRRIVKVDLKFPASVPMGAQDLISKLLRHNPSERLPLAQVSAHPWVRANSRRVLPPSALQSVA

T2 sequence (Q6DE08 60-361 G96V): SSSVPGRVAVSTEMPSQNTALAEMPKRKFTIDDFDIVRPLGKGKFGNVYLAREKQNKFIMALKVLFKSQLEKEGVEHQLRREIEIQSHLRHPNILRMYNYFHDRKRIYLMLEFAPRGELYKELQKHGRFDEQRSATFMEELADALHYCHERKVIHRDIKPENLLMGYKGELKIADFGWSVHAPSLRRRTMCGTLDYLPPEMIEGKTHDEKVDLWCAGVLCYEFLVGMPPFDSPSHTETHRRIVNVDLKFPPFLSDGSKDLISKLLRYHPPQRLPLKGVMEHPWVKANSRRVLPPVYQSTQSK
T2 sequence (O13024 790-847 partner limits assumed): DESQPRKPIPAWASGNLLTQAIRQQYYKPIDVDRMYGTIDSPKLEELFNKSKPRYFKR
T1 sequence (Q6DE08 60-361): as the sequence (Q6DE08 60-361 G96V) above, with V37G counted along it
T1 sequence (O13024 790-847 partner limits assumed): as the sequence (O13024 790-847 partner limits assumed) above

By IC50 is commonly meant the concentration needed to halve the response being measured. As to `CCS(=O)(=O)Nc1ccc2c(c1)/C(=C(/Nc1ccc(CN3CCCCC3)cc1)c1ccccc1)C(=O)N2` [Hesperadin], the IC50 in assay [1] is 7 nM; in assay [2], 25 nM; in assay [3], 44 nM.
